According to patent US10611748B2, “Xanthone derivatives for the treatment of hepatitis B virus disease” (Hoffmann-La Roche Inc., priority 2017, dated 2020):

Columns and labels:
[1] = test system: extracellular HBeAg level (surrogate marker for cccDNA) in HepDES19 cells; assay: HepDES19 primary screen assay; format: cell-based, HBV; conditions: Hepatitis B virus, 120 h, 5 days compound incubation, HBeAg ELISA
Description: The assay was employed to primarily screen for novel cccDNA inhibitors. HepDES19 is an engineered cell line which contains a 1.1 unit length HBV genome, and pgRNA transcription from the transgene is controlled by Tetracycline (Tet). In the absence of Tet, pgRNA transcription will be induced, but HBV e antigen (HBeAg) could not be produced from this pgRNA due to the fact that the very short leader sequence before the HBeAg start codondisrupted the start codon. Only after cccDNA is formed, the missing leader sequence and start codon mutation would be restored from the 3′-terminal redundancy of pgRNA, and then HBeAg could be synthesized. Therefore, HBeAg could be used as a surrogate marker for cccDNA (Zhou, T. et al., Antiviral Res(2006), 72(2), 116-124; Guo, H. et al., J. Virol (2007), 81(22), 12472-12484).
HepDES19 cells were seeded at 2×10^6 cells per T150 flask and cultured with the culture medium (Dulbecco's Modified Eagle Medium: Nutrient Mixture F-12 (DMEM:F12, Gibco Cat. 11320-82), 10% Fetal Bovine Serum (FBS, Clontech Cat. 631101), 0.1 mM Non-Essential Amino Acids Solution (NEAA, Gibco Cat. 11140-050), 50 μg/mL Penicillin-Streptomycin (PS, Invitrogen Cat. 15140-163), 500 μg/mL Geneticin (G418, Invitrogen Cat. 10131-027) containing 3 μg/mL Tet (Sigma, Cat. 87128) for 5 days. Cells were then seeded at 4×10^6 cells per T150 in the same culture medium as described above in the absence of Tet for 8 days. Cells were then harvested and frozen at density of 2×10^6 cells per mL. For compound testing, the frozen cells were thawed and seeded into 96-well plates at a density of 6×10^4 cells per well. At 24 hrs after seeding, half log serial dilutions of compounds made with Dimethyl sulfoxide (DMSO, Sigma, Cat. D2650) were further diluted with the same culture medium as described above before they were added to the cells to reach desired final compound concentrations and 1% DMSO concentration. Plates were then incubated at 37° C. for another 5 days before measurement of HBeAg level and cell viability. Extracellular HBeAg level were measured with enzyme-linked immunosorbent assay (ELISA) kit (Shanghai Kehua Diagnostic Medical Products Co., Ltd). Cell viability was assessed using Cell Counting Kit-8 (Donjindo, Cat. CK04-20). IC50 values were derived from the dose-response curve using 4 parameter logistic curve fit method.
The compounds of the present invention were tested for their capacity to inhibit extracellular HBeAg level as described herein.

[2] = test system: extracellular HBsAg level in HBV-infected PHH; assay: Cryopreserved primary human hepatocytes (PHH) assay, HBsAg; format: cell-based; conditions: Hepatitis B virus, Hepatocyte, 216 h, read-out: HBsAg IC50
Protocol: Cryopreserved PHH (BioreclamationIVT, Lot YJM) was thawed at 37° C. and gently transferred into pre-warmed InVitroGRO HT medium (BioreclamationIVT, Cat. S03317). The mixture was centrifuged at 70 relative centrifugal force (RCF) for 3 minutes at RT, and the supernatant was discarded. Pre-warmed InVitroGRO CP medium (BioreclamationIVT, Cat # S03316) was added to the cell pellet to gently re-suspend cells. The cells were seeded at the density of 5.8×10^4 cells per well to collagen I coated 96-well plate (Gibco, Cat. A1142803) with the InVitroGRO CP medium. All plates were incubated at 37° C. with 5% CO2 and 85% humidity.
At 20 hours after plating, the medium was changed to PHH culture medium (Dulbecco's Modified Eagle Medium (DMEM)/F12 (1:1) (Gibco, Cat. 11320-033), 10% fetal bovine serum (Gibco Cat. 10099141), 100 U/mL penicillin, 100 μg/mL streptomycin (Gibco, Cat. 151401-122), 5 ng/mL human epidermal growth factor (Invitrogen Cat. PHG0311L), 20 ng/mL dexamethasone (Sigma, Cat. D4902) and 250 ng/mL human recombinant insulin (Gibco, Cat. 12585-014)). And the cells were incubated at 37° C. with 5% CO2 and 85% humidity for 4 hours. The medium was then changed to pre-warmed PHH culture medium containing 4% polyethylene glycol (PEG) MW8000 (Sigma, Cat. P1458-50ML) and 1% DMSO (Sigma, Cat. D2650). 5.8×10^6 genomic equivalents of HBV were added into the medium.
At 24 hours post-infection, the cells were gently washed with PBS and refreshed with PHH culture medium supplemented with 1% DMSO, and 0.25 mg/mL Matrix gel (Corning, Cat. 356237) at 200 μL per well. All plates were immediately placed in at 37° C. CO2 incubator.
24 hours later, serial dilutions of compounds made with DMSO were further diluted with the same culture medium (PHH culture medium supplemented with 1% DMSO and 0.25 mg/mL Matrix gel as described above) before they were added to the cells to reach desired final compound concentrations and 1% DMSO concentration. The medium containing the compounds were refreshed every three days.
At 9 days post-compound treatment, extracellular HBsAg level were measured with Chemiluminescence Immuno Assay (CLIA) kit (Autobio, HBsAg Quantitative CLIA). Extracellular HBV DNA was extracted by MagNA Pure 96 system (Roche) and then determined by quantitative PCR with the following primers and probe: HBV-Forward Primer (SEQ ID NO:2): […] (5′ to 3′); HBV-Reverse Primer (SEQ ID NO:3): […](5′ to 3′); HBV-Probe: 5′+tetramethylrhodamine+SEQ ID NO:4+black hole quencher 2-3′, wherein SEQ ID NO:4 is […].
HBsAg IC50 and HBV DNA IC50 values were derived from the dose-response curve using 4 parameter logistic curve fit method.

Row | Compound | IC50 [1] [µM] | IC50 [2] [µM]
1 | COc1cc(O[C@@H]2O[C@H](CO)[C@@H](O)[C@H](O)[C@H]2O)c2c(=O)c3c(O)ccc(O)c3oc2c1 [Swertianolin, 5,8-dihydroxy-3-methoxy-1-[(2S,3R,4S,5S,6R)-3,4,5-trihydroxy-6-(hydroxymethyl)tetrahydropyran-2-yl]oxy-xanthen-9-one, reference compound] | > 100 | > 100
2 | O=C(O)C1CCN(c2cc3oc4c(Cl)cccc4c(=O)c3cc2F)C1 (stereo not drawn) [Example 42, 1-(5-chloro-2-fluoro-9-oxo-xanthen-3-yl)pyrrolidine-3-carboxylic Acid] | 1.17 | 7.74
3 | O=C(O)C1CCN(c2ccc3c(=O)c4cccc(Cl)c4sc3c2)C1 (stereo not drawn) [Example 6, 1-(5-chloro-9-oxo-thioxanthen-3-yl)pyrrolidine-3-carboxylic acid] | 4.94 | 5.06
4 | O=C(O)C1CCN(c2cc3oc4c(Cl)cccc4c(=O)c3cc2Cl)C1 (stereo not drawn) [Example 43, 1-(2,5-dichloro-9-oxo-xanthen-3-yl)pyrrolidine-3-carboxylic Acid] | 1.11 | 8.22
5 | N#Cc1ccc(Cl)c2oc3cc(N4CCC(C(=O)O)C4)ccc3c(=O)c12 (stereo not drawn) [Example 44, 1-(5-chloro-8-cyano-9-oxo-xanthen-3-yl)pyrrolidine-3-carboxylic Acid] | 1.1 | 12.4
6 | O=C(O)C1CCN(c2cc3oc4c(Cl)cccc4c(=O)c3cn2)C1 (stereo not drawn) [Example 41, 1-(6-chloro-10-oxo-chromeno[3,2-c]pyridin-3-yl)pyrrolidine-3-carboxylic Acid] | 4.04 | 8.08
7 | O=C(O)C1CCN(c2ccc3c(=O)c4c(O)ccc(Cl)c4oc3c2)C1 (stereo not drawn) [Example 53, 1-(5-chloro-8-hydroxy-9-oxo-xanthen-3-yl)pyrrolidine-3-carboxylic Acid] | 3.43 | 8.12
8 | Cc1ccc(Cl)c2oc3cc(N4CCC(C(=O)O)C4)ccc3c(=O)c12 (stereo not drawn) [Example 40, 1-(5-chloro-8-methyl-9-oxo-xanthen-3-yl)pyrrolidine-3-carboxylic Acid] | 1.31 | 1.69
9 | Cc1cc2c(=O)c3cccc(Cl)c3oc2cc1N1CCC(C(=O)O)C1 (stereo not drawn) [Example 39, 1-(5-chloro-2-methyl-9-oxo-xanthen-3-yl)pyrrolidine-3-carboxylic Acid] | 1.08 | 3.18
10 | Cc1cc2c(=O)c3cccc(F)c3oc2cc1N1CCCC1 [Example 25, 5-fluoro-2-methyl-3-pyrrolidin-1-yl-xanthen-9-one] | 1.52 | 
11 | O=c1c2ccc(N3CCCC3)nc2oc2c(F)cccc12 [Example 63, 9-fluoro-2-pyrrolidin-1-yl-chromeno[2,3-b]pyridin-5-one] | 19.2 | 
12 | O=c1c2ccc(N3CCC4(CCNC4)C3)cc2oc2c(F)cccc12 (stereo not drawn) [Example 48, 3-(2,7-diazaspiro[4.4]nonan-2-yl)-5-fluoro-xanthen-9-one] | 5.48 | 
13 | O=c1c2ccc(N3CCCC(O)C3)cc2oc2c(Cl)cccc12 (stereo not drawn) [Example 12, 5-chloro-3-(3-hydroxy-1-piperidyl)xanthen-9-one] | 2.88 | 
14 | O=c1c2ccc(N3CCC4(CNC4)C3)cc2oc2c(F)cccc12 [Example 47, 3-(2,6-diazaspiro[3.4]octan-6-yl)-5-fluoro-xanthen-9-one] | 4.77 | 
15 | O=C(O)C1(C(F)(F)F)CCN(c2ccc3c(=O)c4cccc(Cl)c4oc3c2)C1 (stereo not drawn) [Example 19, 1-(5-chloro-9-oxo-xanthen-3-yl)-3-(trifluoromethyl)pyrrolidine-3-carboxylic Acid] | 27 | 
16 | Fc1cccc2c1Oc1cc(N3CCCC3)ccc1C2 [Example 62, 1-(5-fluoro-9H-xanthen-3-yl)pyrrolidine] | 3.99 | 
17 | O=c1c2ccc(N3CCC(CO)C3)cc2oc2c(Cl)cccc12 (stereo not drawn) [Example 10, 5-chloro-3-[3-(hydroxymethyl)pyrrolidin-1-yl]xanthen-9-one] | 1.13 | 
18 | N[C@@H]1CCN(c2ccc3c(=O)c4cccc(F)c4oc3c2)C1 [Example 51, 3-[(3R)-3-aminopyrrolidin-1-yl]-5-fluoro-xanthen-9-one] | 4.85 | 
19 | O=c1c2ccc(N3CC[C@@H](O)C3)cc2oc2c(Cl)cccc12 [Example 30, 5-chloro-3-[(3R)-3-hydroxypyrrolidin-1-yl]xanthen-9-one] | 2.63 | 
20 | O=c1c2cc(Cl)c(N3CCCC3)cc2oc2c(F)cccc12 [Example 68, 2-chloro-5-fluoro-3-pyrrolidin-1-yl-xanthen-9-one] | 1.18 | 
21 | CC1(C(=O)O)CCN(c2ccc3c(=O)c4cccc(Cl)c4oc3c2)C1 (stereo not drawn) [Example 16, 1-(5-chloro-9-oxo-xanthen-3-yl)-3-methyl-pyrrolidine-3-carboxylic Acid] | 11.2 | 
22 | O=C(O)C1CCN(c2ccc3c(=O)c4c(C(F)(F)F)ccc(Cl)c4oc3c2)C1 (stereo not drawn) [Example 67, 1-[5-chloro-9-oxo-8-(trifluoromethyl)xanthen-3-yl]pyrrolidine-3-carboxylic Acid] | 0.39 | 1.29
23 | O=c1c2cnc(N3CCCC3)cc2oc2c(F)cccc12 [Example 45, 6-fluoro-3-pyrrolidin-1-yl-chromeno[3,2-c]pyridin-10-one] | 0.51 | 
24 | CN1CCN(c2ccc3c(=O)c4cccc(F)c4oc3c2)CC1 [Example 38, 5-fluoro-3-(4-methylpiperazin-1-yl)xanthen-9-one] | 16.1 | 
25 | O=C(O)C1CCN(c2ccc3c(=O)c4cccc(C(F)(F)F)c4oc3c2)C1 (stereo not drawn) [Example 37, 1-[9-oxo-5-(trifluoromethyl)xanthen-3-yl]pyrrolidine-3-carboxylic Acid] | 13.4 | 
26 | O=C(O)C1CCN(c2ccc3c(=O)c4c(F)ccc(Cl)c4oc3c2)C1 (stereo not drawn) [Example 66, 1-(5-chloro-8-fluoro-9-oxo-xanthen-3-yl)pyrrolidine-3-carboxylic Acid] | 1.91 | 8.48
27 | CN(C)C(=O)C1CCN(c2ccc3c(=O)c4cccc(Cl)c4oc3c2)C1 (stereo not drawn) [Example 46, 1-(5-chloro-9-oxo-xanthen-3-yl)-N,N-dimethyl-pyrrolidine-3-carboxamide] | 4.3 | 
28 | O=c1c2ccc(N3CC[C@H](O)C3)cc2oc2c(Cl)cccc12 [Example 27, 5-chloro-3-[(3S)-3-hydroxypyrrolidin-1-yl]xanthen-9-one] | 1.95 | 
